From US20250235460A1, “COMBINATION THERAPY USING GLUCOSE-DEPENDENT INSULINOTROPIC POLYPEPTIDE RECEPTOR ANTAGONIST COMPOUNDS AND GLP-1 RECEPTOR AGONIST COMPOUNDS” (Pfizer Inc., priority 2024, published 2025)

How the values were obtained:
human GLP-1R [1] = target: human GLP-1R (Homo sapiens, UniProt P43220, G168S); assay: CHO GLP-1R Clone H6 cAMP HTRF agonist assay (Assay 1, high receptor density); type: cell-based; settings: for EC50: CHO GLP-1R clone H6, cAMP HTRF, geometric mean; for Emax: CHO GLP-1R clone H6, arithmetic mean, relative to saturating GLP-1 (1 μM), read-out: Assay 1 Emax (%)
Outline: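 EC50 values are reported as geometric means and Emax as arithmetic means across the listed number of replicates, both given to two significant figures.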

human GLP-1R [2] = target: human GLP-1R (Homo sapiens, UniProt P43220, L260F); assay: CHO GLP-1R Clone C6 cAMP HTRF agonist assay (Assay 2, low receptor density); type: cell-based; settings: for EC50: CHO GLP-1R clone C6, cAMP HTRF, geometric mean; for Emax: CHO GLP-1R clone C6, arithmetic mean, relative to saturating GLP-1 (1 μM)
Excerpt: In Table 5 and Table 6, assay data are presented to two (2) significant figures as the geometric mean (EC50s) and arithmetic mean (Emax) based on the number of replicates listed (Number). A blank cell means there was no data for that Example or the Emax was not calculated.

human GLP-1R (Homo sapiens, UniProt P43220, G168S), sequence (P43220 24-463 G168S): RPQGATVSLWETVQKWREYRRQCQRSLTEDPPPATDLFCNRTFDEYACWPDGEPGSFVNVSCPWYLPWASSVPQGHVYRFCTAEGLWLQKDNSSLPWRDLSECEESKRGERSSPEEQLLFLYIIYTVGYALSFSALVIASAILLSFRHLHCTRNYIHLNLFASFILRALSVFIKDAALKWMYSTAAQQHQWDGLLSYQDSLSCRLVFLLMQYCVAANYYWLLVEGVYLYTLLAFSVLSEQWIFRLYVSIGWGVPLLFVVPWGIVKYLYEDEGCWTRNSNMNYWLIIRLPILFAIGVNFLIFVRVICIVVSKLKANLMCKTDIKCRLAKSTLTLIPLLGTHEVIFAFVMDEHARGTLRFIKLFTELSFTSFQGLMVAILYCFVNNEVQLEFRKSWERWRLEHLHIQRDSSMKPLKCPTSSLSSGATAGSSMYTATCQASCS
human GLP-1R (Homo sapiens, UniProt P43220, L260F), sequence (P43220 24-463 L260F): as the sequence (P43220 24-463 G168S) above, with S145G, L237F counted along it

Row | SMILES | EC50 (human GLP-1R [1]) | Emax (human GLP-1R [1]) | EC50 (human GLP-1R [2]) | Emax (human GLP-1R [2])
1 | O=C(O)c1ccc2nc(CN3CCC(c4cccc(OCc5ccc(Cl)cc5F)n4)CC3)n(CCC(F)(F)F)c2c1 [Compound 346B, 2-[(4-{6-[(4-chloro-2-fluorobenzyl)oxy]pyridin-2-yl}piperidin-1-yl)methyl]-1-(3,3,3-trifluoropropyl)-1H-benzimidazole-6-carboxylic acid] | 21 nM | 79% | 540 nM | 
2 | COCC1(Cn2c(CN3CCC(c4cccc(OCc5ccc(Cl)cc5F)n4)CC3)nc3ccc(C(=O)O)cc32)CCC1 [Compound 347B, 2-[(4-{6-[(4-chloro-2-fluorobenzyl)oxy]pyridin-2-yl}piperidin-1-yl)methyl]-1-{[1-(methoxymethyl)cyclobutyl]methyl}-1H-benzimidazole-6-carboxylic acid] | 6.9 nM | 78% | 170 nM | 96%
3 | COCCn1c(CN2CCN(c3cccc(OCc4ccc(Cl)cc4F)n3)CC2C(F)(F)F)nc2ccc(C(=O)O)cc21 (stereo not shown) [Compound 348B, 2-((4-(6-((4-Chloro-2-fluorobenzyl)oxy)pyridin-2-yl)-2-(trifluoromethyl)piperazin-1-yl)methyl)-1-(2-methoxyethyl)-1H-benzo[d]imidazole-6-carboxylic acid] | 54 nM | 81% | 2100 nM | 100%
4 | COCCn1c(CN2CCN(c3cccc(OCc4ccc(Cl)cc4F)n3)C[C@@H]2C(C)C)nc2ccc(C(=O)O)cc21 [Compound 351B, 2-{[(2S)-4-{6-[(4-chloro-2-fluorobenzyl)oxy]pyridin-2-yl}-2-(propan-2-yl)piperazin-1-yl]methyl}-1-(2-methoxyethyl)-1H-benzimidazole-6-carboxylic acid] | 5.2 nM | 66% | 120 nM | 80%
5 | COCCn1c(CN2CCN(c3cccc(OCc4ccc(Cl)cc4F)n3)CC2(C)C)nc2ccc(C(=O)O)cc21 [Compound 352B, 2-[(4-{6-[(4-chloro-2-fluorobenzyl)oxy]pyridin-2-yl}-2,2-dimethylpiperazin-1-yl)methyl]-1-(2-methoxyethyl)-1H-benzimidazole-6-carboxylic acid] | 46 nM | 66% | 1400 nM | 83%
6 | CC[C@H]1CN(c2cccc(OCc3ccc(Cl)cc3F)n2)CCN1Cc1nc2ccc(C(=O)O)cc2n1CCOC [Compound 353B, 2-{[(2S)-4-{6-[(4-chloro-2-fluorobenzyl)oxy]pyridin-2-yl}-2-ethylpiperazin-1-yl]methyl}-1-(2-methoxyethyl)-1H-benzimidazole-6-carboxylic acid] | 5.6 nM | 80% | 200 nM | 89%
7 | COCCn1c(CN2CCN(c3cccc(OCc4ccc(Cl)cc4F)n3)C[C@@H]2CO)nc2ccc(C(=O)O)cc21 [Compound 354B, 2-{[(2R)-4-{6-[(4-chloro-2-fluorobenzyl)oxy]pyridin-2-yl}-2-(hydroxymethyl)piperazin-1-yl]methyl}-1-(2-methoxyethyl)-1H-benzimidazole-6-carboxylic acid] | 94 nM | 78% | 1500 nM | 69%
8 | COCCn1c(CN2CCN(c3cccc(OCc4ccc(Cl)cc4F)n3)C[C@@H]2C)nc2ccc(C(=O)O)cc21 [Compound 355B, 2-{[(2S)-4-{6-[(4-chloro-2-fluorobenzyl)oxy]pyridin-2-yl}-2-methylpiperazin-1-yl]methyl}-1-(2-methoxyethyl)-1H-benzimidazole-6-carboxylic acid] | 6.3 nM | 83% | 110 nM | 87%
9 | COCCn1c(CN2CCN(c3cccc(OCc4ccc(Cl)cc4F)n3)C[C@H]2C)nc2ccc(C(=O)O)cc21 [Compound 356B, 2-{[(2R)-4-{6-[(4-chloro-2-fluorobenzyl)oxy]pyridin-2-yl}-2-methylpiperazin-1-yl]methyl}-1-(2-methoxyethyl)-1H-benzimidazole-6-carboxylic acid] | 100 nM |  | 1100 nM | 75%
10 | N#Cc1ccc(COc2cccc(C3CCN(Cc4nc5ccc(C(=O)O)cc5n4CC4CCCO4)CC3)n2)cc1 (stereo not shown) [Compound 359B, 2-[(4-{6-[(4-cyanobenzyl)oxy]pyridin-2-yl}piperidin-1-yl)methyl]-1-(tetrahydrofuran-2-ylmethyl)-1H-benzimidazole-6-carboxylic acid] | 1.9 nM | 63% | 55 nM | 75%
11 | N#Cc1ccc(COc2nc(C3CCN(Cc4nc5ccc(C(=O)O)cc5n4CC4CCCO4)CC3)ccc2F)cc1 (stereo not shown) [Compound 360B, 2-[(4-{6-[(4-cyanobenzyl)oxy]-5-fluoropyridin-2-yl}piperidin-1-yl)methyl]-1-(tetrahydrofuran-2-ylmethyl)-1H-benzimidazole-6-carboxylic acid] |  | 72% |  | 84%
12 | N#Cc1ccc(COc2nc(C3CCN(Cc4nc5ccc(C(=O)O)cc5n4CC4CCOC4)CC3)ccc2F)cc1 (stereo not shown) [Compound 361B, 2-[(4-{6-[(4-cyanobenzyl)oxy]-5-fluoropyridin-2-yl}piperidin-1-yl)methyl]-1-(tetrahydrofuran-3-ylmethyl)-1H-benzimidazole-6-carboxylic acid] |  | 73% |  | 81%
13 | C[C@H]1CN(c2cccc(OCc3ccc(C#N)cc3)n2)CCN1Cc1nc2ccc(C(=O)O)cc2n1CC1CCCO1 (stereo partly drawn) [Compound 362B, 2-{[(2S)-4-{6-[(4-cyanobenzyl)oxy]pyridin-2-yl}-2-methylpiperazin-1-yl]methyl}-1-(tetrahydrofuran-2-ylmethyl)-1H-benzimidazole-6-carboxylic acid] | 12 nM | 64% | 270 nM | 
14 | N#Cc1ccc(COc2cccc(C3CCN(Cc4nc5ccc(C(=O)O)cc5n4CC4CCOC4)CC3)n2)c(F)c1 (stereo not shown) [Compound 363B, 2-[(4-{6-[(4-cyano-2-fluorobenzyl)oxy]pyridin-2-yl}piperidin-1-yl)methyl]-1-(tetrahydrofuran-3-ylmethyl)-1H-benzimidazole-6-carboxylic acid] |  | 65% |  | 71%
15 | C[C@H]1CN(c2cccc(OCc3ccc(C#N)cc3F)n2)CCN1Cc1nc2ccc(C(=O)O)cc2n1CC1CCCO1 (stereo partly drawn) [Compound 364B, 2-{[(2S)-4-{6-[(4-cyano-2-fluorobenzyl)oxy]pyridin-2-yl}-2-methylpiperazin-1-yl]methyl}-1-(tetrahydrofuran-2-ylmethyl)-1H-benzimidazole-6-carboxylic acid] | 1.4 nM |  | 20 nM | 
